According to ChEMBL document CHEMBL3822388, “In vivo phenotypic drug discovery: applying a behavioral assay to the discovery and optimization of novel antipsychotic agents” (Medchemcomm, 2016):
Blank lines part the entries; values can stand above or below the molecule they belong to. Calls of active or inactive are those of the source. The calls are words filed in the database; no cut-off is given here.

Key:
[1] = system: Mus musculus; test: Antipsychotic activity in ip dosed mouse administered 15 mins prior to testing by SmartCube automated system based method; format: functional; conditions: for minimal effective dose: Mus musculus, ip, read-out: MED
[2] = system: Mus musculus; test: Antipsychotic activity in mouse at 3 to 30 mg/kg, ip dosed 15 mins prior to testing by SmartCube automated system based method relative to standard compound; format: functional, organism-based
[3] = system: Mus musculus; test: Antipsychotic activity in mouse at 30 mg/kg, ip administered 15 mins prior to testing by SmartCube automated system based method relative to standard compound; format: functional
[4] = target: Cytochrome P450 2C9 (Homo sapiens, UniProt P11712); test: Inhibition of CYP2C9 in human liver microsomes assessed as reduction in tolbutamide 4-hydroxylation by LC-MS/MS analysis; format: ADME
Sequence of Cytochrome P450 2C9 (P11712 whole entry): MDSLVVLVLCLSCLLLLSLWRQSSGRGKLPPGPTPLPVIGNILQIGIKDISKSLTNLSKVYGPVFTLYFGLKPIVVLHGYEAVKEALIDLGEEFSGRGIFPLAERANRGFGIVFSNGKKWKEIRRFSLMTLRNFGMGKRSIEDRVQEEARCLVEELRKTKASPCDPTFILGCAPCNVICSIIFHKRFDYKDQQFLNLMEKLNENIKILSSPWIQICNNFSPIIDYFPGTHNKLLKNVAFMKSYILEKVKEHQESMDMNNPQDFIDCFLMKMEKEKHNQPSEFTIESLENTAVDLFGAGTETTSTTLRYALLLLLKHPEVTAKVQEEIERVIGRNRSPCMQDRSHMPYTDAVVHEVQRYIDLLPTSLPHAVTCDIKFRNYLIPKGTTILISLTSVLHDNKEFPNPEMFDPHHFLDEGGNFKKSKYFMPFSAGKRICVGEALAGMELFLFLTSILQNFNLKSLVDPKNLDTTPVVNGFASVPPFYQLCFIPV

[5] = target: Cytochrome P450 2D6 (Homo sapiens, UniProt P10635); test: Inhibition of CYP2D6 in human liver microsomes assessed as reduction in dextromethorphan o-demethylation by LC-MS/MS analysis; format: ADME
Sequence of Cytochrome P450 2D6 (P10635 whole entry): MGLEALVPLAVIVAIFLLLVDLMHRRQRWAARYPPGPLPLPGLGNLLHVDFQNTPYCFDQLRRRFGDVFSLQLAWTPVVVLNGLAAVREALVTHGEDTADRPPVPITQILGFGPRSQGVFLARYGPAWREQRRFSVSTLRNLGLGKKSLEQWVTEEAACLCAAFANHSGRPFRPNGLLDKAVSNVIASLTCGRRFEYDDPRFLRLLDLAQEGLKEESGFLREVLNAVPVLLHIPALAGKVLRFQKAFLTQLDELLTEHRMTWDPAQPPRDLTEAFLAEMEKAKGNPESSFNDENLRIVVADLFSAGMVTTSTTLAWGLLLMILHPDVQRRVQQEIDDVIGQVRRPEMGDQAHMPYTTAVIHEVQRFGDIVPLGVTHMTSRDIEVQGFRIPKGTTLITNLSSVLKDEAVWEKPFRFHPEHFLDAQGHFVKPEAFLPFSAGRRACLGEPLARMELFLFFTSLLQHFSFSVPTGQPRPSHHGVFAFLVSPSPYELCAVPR

[6] = Half life in rat liver microsomes at 3 uM in presence of NADPH by LC-MS/MS analysis; format: ADME
[7] = system: Mus musculus; test: Antipsychotic activity in mouse at 30 mg/kg, ip administered 15 mins prior to testing by SmartCube automated system based method relative to vehicle; format: functional
[8] = Half life in human liver microsomes at 3 uM in presence of NADPH by LC-MS/MS analysis; format: ADME
[9] = target: D(2) dopamine receptor (Homo sapiens) (UniProt P14416); test: Displacement of [3H]methyl-spiperone from human recombinant D2 receptor expressed in HEK293 cells at 10 uM after 60 mins by scintillation counting analysis; format: cell-based
Sequence of D(2) dopamine receptor (Homo sapiens) (P14416 whole entry): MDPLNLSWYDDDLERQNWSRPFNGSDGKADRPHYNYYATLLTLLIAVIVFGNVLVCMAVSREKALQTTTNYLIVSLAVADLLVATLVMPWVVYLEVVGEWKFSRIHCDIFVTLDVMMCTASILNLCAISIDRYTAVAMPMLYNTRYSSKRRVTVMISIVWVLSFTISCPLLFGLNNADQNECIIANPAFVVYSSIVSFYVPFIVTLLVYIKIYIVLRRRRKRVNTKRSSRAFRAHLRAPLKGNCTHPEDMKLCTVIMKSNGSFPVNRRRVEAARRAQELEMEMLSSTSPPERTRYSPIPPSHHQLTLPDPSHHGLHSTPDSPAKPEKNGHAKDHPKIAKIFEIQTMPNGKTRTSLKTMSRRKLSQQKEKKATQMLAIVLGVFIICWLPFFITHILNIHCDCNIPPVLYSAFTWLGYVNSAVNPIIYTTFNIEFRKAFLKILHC

[10] = target: Cytochrome P450 3A4 (Homo sapiens, UniProt P08684); test: Inhibition of CYP3A4 in human liver microsomes assessed as reduction in midazolam 1-hydroxylation/testosterone 6beta-hydroxylation by LC-MS/MS analysis; format: ADME
Sequence of Cytochrome P450 3A4 (P08684 whole entry): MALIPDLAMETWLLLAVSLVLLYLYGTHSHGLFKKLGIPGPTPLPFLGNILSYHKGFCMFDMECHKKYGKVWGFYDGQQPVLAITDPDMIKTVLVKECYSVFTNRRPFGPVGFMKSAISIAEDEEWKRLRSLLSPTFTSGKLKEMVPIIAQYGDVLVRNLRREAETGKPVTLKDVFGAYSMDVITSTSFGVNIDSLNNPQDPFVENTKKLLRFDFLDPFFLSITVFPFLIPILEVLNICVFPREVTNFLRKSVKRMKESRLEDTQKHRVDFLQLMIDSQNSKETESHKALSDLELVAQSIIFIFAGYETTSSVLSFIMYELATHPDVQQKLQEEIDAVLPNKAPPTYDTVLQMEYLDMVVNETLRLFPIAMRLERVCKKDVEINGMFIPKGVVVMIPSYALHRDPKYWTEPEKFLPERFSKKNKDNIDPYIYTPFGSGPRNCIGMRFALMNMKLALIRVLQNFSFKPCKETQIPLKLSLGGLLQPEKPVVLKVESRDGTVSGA

[11] = Half life in mouse liver microsomes at 3 uM in presence of NADPH by LC-MS/MS analysis; format: ADME
[12] = Protein binding in mouse plasma at 5 uM by LC-MS/MS based equilibrium dialysis method; format: ADME, cell-free; conditions: read-out: PPB (converted)
[13] = target: Voltage-gated inwardly rectifying potassium channel KCNH2 (Homo sapiens, UniProt Q12809); test: Inhibition of human ERG; conditions: read-out: IC50
Sequence of Voltage-gated inwardly rectifying potassium channel KCNH2 (Q12809 whole entry): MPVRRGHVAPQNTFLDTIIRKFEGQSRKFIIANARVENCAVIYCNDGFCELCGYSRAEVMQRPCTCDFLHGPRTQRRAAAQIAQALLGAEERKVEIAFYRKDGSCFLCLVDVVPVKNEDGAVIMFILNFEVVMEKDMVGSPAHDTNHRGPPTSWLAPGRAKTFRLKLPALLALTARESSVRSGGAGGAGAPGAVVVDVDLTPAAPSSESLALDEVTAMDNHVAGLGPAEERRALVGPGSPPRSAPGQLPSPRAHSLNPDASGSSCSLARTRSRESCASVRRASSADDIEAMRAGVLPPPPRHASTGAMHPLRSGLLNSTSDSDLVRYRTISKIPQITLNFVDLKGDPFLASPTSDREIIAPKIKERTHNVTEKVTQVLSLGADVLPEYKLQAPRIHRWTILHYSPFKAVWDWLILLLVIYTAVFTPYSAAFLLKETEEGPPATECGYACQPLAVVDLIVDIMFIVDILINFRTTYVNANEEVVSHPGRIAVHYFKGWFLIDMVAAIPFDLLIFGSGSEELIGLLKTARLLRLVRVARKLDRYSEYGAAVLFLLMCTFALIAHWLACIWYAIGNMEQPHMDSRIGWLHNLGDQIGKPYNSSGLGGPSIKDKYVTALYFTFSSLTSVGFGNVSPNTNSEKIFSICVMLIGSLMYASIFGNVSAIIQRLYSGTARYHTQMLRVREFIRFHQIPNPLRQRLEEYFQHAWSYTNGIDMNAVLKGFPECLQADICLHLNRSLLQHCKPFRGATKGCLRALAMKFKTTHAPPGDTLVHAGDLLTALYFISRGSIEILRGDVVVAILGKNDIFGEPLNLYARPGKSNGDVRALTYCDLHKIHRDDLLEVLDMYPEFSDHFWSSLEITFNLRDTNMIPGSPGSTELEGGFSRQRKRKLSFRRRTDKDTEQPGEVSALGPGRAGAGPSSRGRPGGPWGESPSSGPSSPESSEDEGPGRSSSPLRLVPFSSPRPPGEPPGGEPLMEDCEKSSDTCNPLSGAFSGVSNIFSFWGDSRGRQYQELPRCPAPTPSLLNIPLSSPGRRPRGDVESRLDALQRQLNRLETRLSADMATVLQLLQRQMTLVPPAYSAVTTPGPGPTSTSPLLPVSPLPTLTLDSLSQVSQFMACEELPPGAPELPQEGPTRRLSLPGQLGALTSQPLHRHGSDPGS

[14] = target: CYP1A (Homo sapiens, UniProt P04798+P05177); test: Inhibition of CYP1A in human liver microsomes assessed as reduction in ethoxyresorufin o-deethylation by fluorescence assay; conditions: probe ethoxyresorufin (O-deethylation)
[15] = target: Cytochrome P450 2C19 (Homo sapiens, UniProt P33261); test: Inhibition of CYP2C19 in human liver microsomes assessed as reduction in S-mephenytoin 4-hydroxylation by LC-MS/MS analysis; format: ADME
Sequence of Cytochrome P450 2C19 (P33261 whole entry): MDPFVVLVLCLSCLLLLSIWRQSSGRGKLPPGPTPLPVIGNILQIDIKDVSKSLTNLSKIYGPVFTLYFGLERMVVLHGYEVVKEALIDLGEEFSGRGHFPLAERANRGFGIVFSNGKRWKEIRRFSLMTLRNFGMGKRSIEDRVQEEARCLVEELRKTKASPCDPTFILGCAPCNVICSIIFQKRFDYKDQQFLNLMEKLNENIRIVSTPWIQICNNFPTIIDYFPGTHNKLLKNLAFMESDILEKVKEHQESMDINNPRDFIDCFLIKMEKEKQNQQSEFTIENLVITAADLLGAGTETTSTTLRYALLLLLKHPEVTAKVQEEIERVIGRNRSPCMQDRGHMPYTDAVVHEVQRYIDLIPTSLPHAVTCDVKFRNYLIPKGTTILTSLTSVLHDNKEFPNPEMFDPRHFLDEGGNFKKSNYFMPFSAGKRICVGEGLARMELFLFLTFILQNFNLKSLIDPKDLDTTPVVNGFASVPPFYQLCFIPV

[16] = Protein binding in rat plasma at 5 uM by LC-MS/MS based equilibrium dialysis method; format: ADME, cell-free; conditions: read-out: PPB (converted)
[17] = target: D(2) dopamine receptor (Homo sapiens) (UniProt P14416); test: Displacement of [3H]methyl-spiperone from human recombinant D2 receptor expressed in HEK293 cells at 30 uM after 60 mins by scintillation counting analysis; format: cell-based

Compound: Cc1sc2c(Cl)cccc2c1C1C=CN=CN1.Cl (stereo not given)
- minimal effective dose [1]: 30 mg/kg

Compound: Cc1sc2ccccc2c1C1C=CN=CN1.Cl (stereo not given)
- minimal effective dose [1]: 3 mg/kg

Compound: CCc1ccc(C2C=CN=CN2)s1.Cl (stereo not given)
- minimal effective dose [1]: 10 mg/kg

Compound: Cc1csc(C2C=CN=CN2)c1C.Cl (stereo in doubt; 12b)
- MED [1]: 30 mg/kg

Compound: Cc1csc(-c2ccncn2)c1C
- Activity [2]: Active

Compound: Cc1sc2c(F)cccc2c1C1C=CN=CN1.Cl (stereo not given)
- minimal effective dose [1]: 10 mg/kg

Compound: CCc1cc(Br)c(C2C=CN=CN2)s1.Cl (stereo not given)
- minimal effective dose [1]: 30 mg/kg

Compound: Fc1c(C2NC=Nc3ccccc32)sc2ccccc12 (stereo not given)
- Activity [3]: Active

- IC50 [4]: > 25 µM
- IC50 [5]: 6.3 µM
- half-life at 3 µM [6]: 39 min
- half-life at 3 µM [8]: 48 min
- inhibition [9]: inactive
- IC50 [10]: 19.8 µM
- half-life at 3 µM [11]: 155 min
- fraction unbound at 5 µM [12]: 0.24
- IC50 [14]: > 25 µM
- IC50 [15]: 12.7 µM
- fraction unbound at 5 µM [16]: 0.3
Compound: Cc1cc(C2C=CN=CN2)c(C)s1.Cl (racemic)
- Activity [7]: >95%
- Activity [3]: 40%
- IC50 [13]: > 25 µM

Compound: Cc1sc2c(c1C1C=CN=CN1)CCCC2.Cl (stereo not given)
- minimal effective dose [1]: 10 mg/kg

Compound: Clc1c(C2C=CN=CN2)sc2ccccc12 (stereo not given)
- Activity [3]: Active

Compound: CC1=CN=CNC1c1c(C)sc2ccccc12.Cl (stereo not given)
- minimal effective dose [1]: 30 mg/kg

Compound: Cc1sc2c(c1C1C=CN=CN1)CCC2.Cl (stereo not given)
- minimal effective dose [1]: 10 mg/kg

- inhibition [17]: 18%
Compound: Cc1csc(C2C=CN=CN2)c1C (stereo not given)
- Activity [3]: Active

Compound: Cc1sc2cccc(F)c2c1C1C=CN=CN1.Cl (stereo not given)
- minimal effective dose [1]: 3 mg/kg

Compound: Cc1c(F)sc(C2C=CN=CN2)c1C.Cl (stereo not given)
- minimal effective dose [1]: 10 mg/kg
